Measurements as given in ChEMBL document CHEMBL1201862, “PubChem BioAssay data set” (2004).
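Five compound concentrations were applied to cells in 96-well plates for 48 hours; endpoints were derived by simple linear interpolation of the resulting dose-response curve. Here, GI50 denotes the concentration required for 50% inhibition of growth.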 The source made the active and inactive calls. No stated cut-off is given here; in the data, active = GI50 up to about 1.1 µM and inactive = higher.

Legend:
Test in all cases: inhibition of tumour cell growth, NCI panel, 48 h
HOP-18 = tested on: HOP-18
NCI/ADR-RES = tested on: NCI/ADR-RES
SNB-78 = tested on: SNB-78
BT-549 = tested on: BT-549
DU-145 = tested on: DU-145
Hs-578T = tested on: Hs-578T
T47D = tested on: T47D
RXF 631 = tested on: RXF 631

CC(=O)OC1C(O)C(C)OC(OC(=O)C2CCC3C(C2)OC2(CC(OC(=O)/C=C/c4ccccc4)C(C)CO2)C32CO2)C1OC1OC(C)C(O)C(O)C1O (stereo unspecified)
GI50 (HOP-18): 0.113 µM (active) | GI50 (NCI/ADR-RES): 21.7 µM (inactive) | GI50 (SNB-78): 0.0352 µM (active)

CC1OC(CO)(n2cnc3c(N)ncnc32)C(O)C1O (stereo unspecified)
GI50 (HOP-18): > 100 µM (inactive) | GI50 (NCI/ADR-RES): > 100 µM (inactive) | GI50 (SNB-78): > 100 µM (inactive)

O=C(O)CN1CCN(CC(=O)O)CCN(CC(=O)O)CC1
GI50 (BT-549): > 100 µM (inactive) | GI50 (DU-145): > 100 µM (inactive) | GI50 (Hs-578T): > 100 µM (inactive) | GI50 (T47D): > 100 µM (inactive)

C=CCNC(=O)CN(CC(=O)OC)C1CCCCC1N(CC(=O)OC)CC(=O)OC (stereo unspecified)
GI50 (BT-549): > 100 µM (inactive) | GI50 (DU-145): > 100 µM (inactive) | GI50 (Hs-578T): > 100 µM (inactive) | GI50 (NCI/ADR-RES): > 100 µM (inactive) | GI50 (T47D): > 100 µM (inactive)

CCOc1ccc2nc(NC(=O)C(=O)C(C(=O)c3ccccc3F)C3OC(=O)c4ccccc43)sc2c1 (stereo unspecified)
GI50 (RXF 631): 14.5 µM (inactive) | GI50 (SNB-78): 17.5 µM (inactive)

CNC(=O)N(C)COC
GI50 (HOP-18): > 100 µM (inactive) | GI50 (SNB-78): > 100 µM (inactive)

CC(C)CNC1=NCC(C)S1 (stereo unspecified)
GI50 (BT-549): > 100 µM (inactive) | GI50 (DU-145): > 100 µM (inactive) | GI50 (Hs-578T): > 100 µM (inactive) | GI50 (T47D): > 100 µM (inactive)

C=C1C(=O)OC2C=C(C)CC3C=C(CCC=C(C)CCC12)C(=O)O3 (stereo unspecified)
GI50 (HOP-18): 51.3 µM (inactive) | GI50 (NCI/ADR-RES): 62.8 µM (inactive) | GI50 (SNB-78): 66.4 µM (inactive)

Cc1cn(Cc2cn(CC3OC(n4cc(C)c(=O)[nH]c4=O)CC3O)nn2)c(=O)[nH]c1=O (stereo unspecified)
GI50 (BT-549): > 100 µM (inactive) | GI50 (DU-145): > 100 µM (inactive) | GI50 (Hs-578T): > 100 µM (inactive) | GI50 (NCI/ADR-RES): > 100 µM (inactive) | GI50 (T47D): > 100 µM (inactive)
